Patent US20150374709A1, “TETRA-SUBSTITUTED NDGA DERIVATIVES VIA ETHER BONDS AND CARBAMATE BONDS AND THEIR SYNTHESIS AND PHARMACEUTICAL USE” (ERIMOS PHARMACEUTICALS LLC, priority 2006, published 2015)

How the values were obtained:
[1] = system: TAT-mediated transactivation of HIV transcription (HIV-1 LTR promoter); assay: SEAP assay of TAT-mediated transactivation (antiviral activity); format: cell-based, human immunodeficiency virus (HIV); conditions: Human immunodeficiency virus 1, COS-7, 48 h, read-out: SEAP EC50
Description: Antiviral activity is determined using a SEAP (SEcreted Alkaline Phosphatase) assay, in which cells are co-transfected with SEAP and TAT plasmids. TAT is a transactivator, human immunodeficiency virus (HIV) gene expression and is one of the two or more necessary viral regulatory factors (TAT and REV) for HIV gene expression. TAT acts iv binding to the TAR RNA element and activating transcription from the long terminal repeat (LTR) promoter. […] Previous studies have shown that TAT mediates reduction of antibody-dependent T cell proliferation, contributing substantially to the failure of the immune response. TAT also directly stimulates Kaposi's cell growth.
Since TAT has no apparent cellular homologs, this strong positive regulator has become an attractive target for the development of anti-AIDS drugs. In contrast to currently available HIV reverse transcriptase inhibitors (AZT, DDI) or potential protease inhibitors that prevent new rounds of infection, an inhibitor which suppresses viral gene TAT regulated expression of integrated proviral DNA will arrest the virus at an early stage (Hsu et al., Science 254:1799-1802, 1991). Efforts aimed at the elucidation of factors which control gene expression at transcriptional and post-transcriptional levels in host eukaryotes have recently made possible quantitative assessment of TAT function (Sim, Ann. N.Y. Acad. Sci. 616: 64-70, 1990). To screen for inhibitors for TAT regulated transactivation (TAT-TRS), the SEAP reporter gene is put under the control of HIV-1 LTR promoter in the plasmid pBC12/HIV/SEAP. The TAT-coded activity is supplied by a second plasmid construct pBC12/CMV/t2. Transient co-transfection of COS-7 cells with these two plasmids leads to secretion of alkaline phosphatase into the culture medium which is analyzed by a simple colorimetric assay (Berger et al., Gene 66: 1-10, 1988). […]
In the SEAP assay, an inhibitor should cause reduction of SEAP reporter gene expression via transactivation of the HIV-1 LTR promoter by TAT protein (TAT-TRS). […] SEAP is detected colorimetrically by the para-nitrophenyl phosphate substrate at 405 nm. […] The cells are analyzed by the MTT assay to compare cytotoxicity to SEAP inhibition. […]
COS-7 (green monkey kidney) cells were co-transfected using Fugene 6 reagent (Roche Applied Science, Cat. No. 11815091001, Indianapolis, Ind., USA) with two plasmids: pHIVSEAP (SEAP expression vector under the control of the HIV LTR promoter) and pCTAT (HIV TAT transcription factor expression vector under the control of a CMV (cytomegalovirus) promoter). After test compound treatment for 48 hours, samples were analyzed for […] at 405 nm after addition of the p-nitrophenyl phosphate substrate. The percentage of SEAP activity inhibition was calculated in relation to the placebo control.

[2] = Non-specific binding to 24-well assay plate without cells; format: in vitro ADME; conditions: single well of a 24-well assay plate without cells, nominal conc. 1.0 μM, single well of 24-well plate without cells
Description: To determine the extent of non-specific binding of the sample to the assay plate, the sample solution was incubated under the conditions described above in a single well of a 24-well assay plate. After 90 minutes, the sample was removed from each well for analysis. After all samples were collected, lucifer yellow solution was added to each monolayer at a final concentration of 100 μM. The inserts were placed in a new receiver plate containing transport buffer. After a 30 min. incubation on an orbital shaker (50 rpm) at 37° C., with ambient humidity and CO2, samples were removed from the receiver chamber to measure percent lucifer yellow flux.
The recovery of Compound A from the apical and basolateral chambers (mass balance) as well as from a single well of a 24-well culture plate without cells (non-specific binding) at the end of the incubation is reported in Table 9.

## C[C@H](Cc1ccc(OCCCN2CCCCC2)c(OCCCN2CCCCC2)c1)[C@@H](C)Cc1ccc(OCCCN2CCCCC2)c(OCCCN2CCCCC2)c1 [Compound A, 1,4-bis{3,4-bis[3-(piperidin-1-yl)propoxy]phenyl}-2,3-dimethyl-(2R,3S)-butane]
[1]
  EC50: 500 to 1000 nM
[2]
  recovery at 90 min, 1 μM: 13%
